In ChEMBL document CHEMBL1133556, “Carbonic anhydrase inhibitors: water-soluble 4-sulfamoylphenylthioureas as topical intraocular pressure-lowering agents with long-lasting effects” (J Med Chem, 2000):
≈ marks a conversion by molar mass, not a printed value.

Species: Oryctolagus cuniculus
Assay: not given
Settings: not given

Compound | Delta IOP [mmHg]
NS(=O)(=O)c1ccc(N/C(S)=N/C(Cc2ccccc2)C(=O)O)cc1 (centres undefined) | 3
CC(C)CC(/N=C(\S)Nc1ccc(S(N)(=O)=O)cc1)C(=O)O (centres undefined) | 6
CC(/N=C(/S)Nc1ccc(S(N)(=O)=O)cc1)C(=O)O (centres undefined) | 5.2

Species: Oryctolagus cuniculus
Assay: not given
Settings: not given
Remark: another data set of the same source

Compound | kin [h⁻¹]
NS(=O)(=O)c1ccc(N/C(S)=N/C(C(=O)O)c2ccccc2)cc1 (centres undefined) | 14300
NS(=O)(=O)c1nnc(NS(=O)(=O)c2ccccc2)s1 [BENZOLAMIDE] | 40
CC(=O)/N=c1/sc(S(N)(=O)=O)nn1C [METHAZOLAMIDE] | 13000

Biological target: T1, Carbonic anhydrase 4 (Bos taurus, UniProt Q95323)
T1 sequence (Q95323 whole entry): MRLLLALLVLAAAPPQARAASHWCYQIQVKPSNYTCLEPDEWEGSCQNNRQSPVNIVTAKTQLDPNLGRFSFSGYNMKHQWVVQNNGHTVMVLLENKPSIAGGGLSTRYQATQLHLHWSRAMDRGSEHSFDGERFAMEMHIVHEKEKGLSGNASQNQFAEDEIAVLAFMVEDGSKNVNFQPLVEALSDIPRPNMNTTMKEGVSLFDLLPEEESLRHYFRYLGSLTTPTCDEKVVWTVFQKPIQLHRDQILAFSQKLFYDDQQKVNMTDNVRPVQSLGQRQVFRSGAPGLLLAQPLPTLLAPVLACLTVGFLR
Assay: not given
Settings: not given

Compound | Ki [nM]
NS(=O)(=O)c1ccc(N/C(S)=N/C(C(=O)O)c2ccccc2)cc1 (centres undefined) | 15
NS(=O)(=O)c1ccc(NC(=S)N2CCC[C@H]2C(=O)NCC(=O)NCC(=O)O)cc1 | 11
CC(C)CC(/N=C(\S)Nc1ccc(S(N)(=O)=O)cc1)C(=O)O (centres undefined) | 12
CC(/N=C(/S)Nc1ccc(S(N)(=O)=O)cc1)C(=O)O (centres undefined) | 36

Second part, the molecule after the results:

Ki [nM] | Compound
75 | NS(=O)(=O)c1ccc(N/C(S)=N\CCc2ccccc2)cc1
18 | NS(=O)(=O)c1ccc(N/C(S)=N/C(Cc2ccc(O)c(O)c2)C(=O)O)cc1 (centres undefined)
13 | NS(=O)(=O)c1ccc(N/C(S)=N/C(Cc2ccc(O)cc2)C(=O)O)cc1 (centres undefined)
13 | NS(=O)(=O)c1ccc(N/C(S)=N/C(Cc2ccccc2)C(=O)O)cc1 (centres undefined)

Test system: not given
Assay: not given
Settings: octanol/water

Compound | logD
NS(=O)(=O)c1ccc(N/C(S)=N/C(C(=O)O)c2ccccc2)cc1 (centres undefined) | 3.652
NS(=O)(=O)c1nnc(NS(=O)(=O)c2ccccc2)s1 [BENZOLAMIDE] | 0.00001
CC(=O)/N=c1/sc(S(N)(=O)=O)nn1C [METHAZOLAMIDE] | 0.06

Species: Oryctolagus cuniculus
Assay: not given
Settings: not given
Remark: another data set of the same source

Compound | Delta IOP [mmHg]
NS(=O)(=O)c1ccc(N/C(S)=N/C(Cc2ccccc2)C(=O)O)cc1 (centres undefined) | 4
CC(C)CC(/N=C(\S)Nc1ccc(S(N)(=O)=O)cc1)C(=O)O (centres undefined) | 5.2
CC(/N=C(/S)Nc1ccc(S(N)(=O)=O)cc1)C(=O)O (centres undefined) | 4

Species: Oryctolagus cuniculus
Assay: not given
Settings: not given
Remark: another data set of the same source

Compound | kin [h⁻¹]
NS(=O)(=O)c1ccc(N/C(S)=N/C(C(=O)O)c2ccccc2)cc1 (centres undefined) | 5900
NS(=O)(=O)c1nnc(NS(=O)(=O)c2ccccc2)s1 [BENZOLAMIDE] | 10
CC(=O)/N=c1/sc(S(N)(=O)=O)nn1C [METHAZOLAMIDE] | 1900

Biological target: Carbonic anhydrase 2 (Homo sapiens, UniProt P00918)
Assay: not given
Settings: not given

Compound | Ki [nM]
NS(=O)(=O)c1ccc(N/C(S)=N/C(C(=O)O)c2ccccc2)cc1 (centres undefined) | 6
NS(=O)(=O)c1ccc(NC(=S)N2CCC[C@H]2C(=O)NCC(=O)NCC(=O)O)cc1 | 3
CC(C)CC(/N=C(\S)Nc1ccc(S(N)(=O)=O)cc1)C(=O)O (centres undefined) | 5
CC(/N=C(/S)Nc1ccc(S(N)(=O)=O)cc1)C(=O)O (centres undefined) | 12

More lines, now with the values ahead:

Ki [nM] | Compound
42 | NS(=O)(=O)c1ccc(N/C(S)=N\CCc2ccccc2)cc1
7 | NS(=O)(=O)c1ccc(N/C(S)=N/C(Cc2ccc(O)c(O)c2)C(=O)O)cc1 (centres undefined)
5 | NS(=O)(=O)c1ccc(N/C(S)=N/C(Cc2ccc(O)cc2)C(=O)O)cc1 (centres undefined)
6 | NS(=O)(=O)c1ccc(N/C(S)=N/C(Cc2ccccc2)C(=O)O)cc1 (centres undefined)

Test system: not listed separately
Assay: physchem
Settings: buffer, pH 7.4
Description: (§1) Solubility (in uM) in pH 7.40 at 25 degree C

Compound | solubility [mM]
NS(=O)(=O)c1nnc(NS(=O)(=O)c2ccccc2)s1 [BENZOLAMIDE] | 1.2 (≈ 0.384 mg/mL)

Biological target: Carbonic anhydrase 1 (Homo sapiens, UniProt P00915)
Assay: not given
Settings: not given

Chain of Carbonic anhydrase 1 (P00915 whole entry): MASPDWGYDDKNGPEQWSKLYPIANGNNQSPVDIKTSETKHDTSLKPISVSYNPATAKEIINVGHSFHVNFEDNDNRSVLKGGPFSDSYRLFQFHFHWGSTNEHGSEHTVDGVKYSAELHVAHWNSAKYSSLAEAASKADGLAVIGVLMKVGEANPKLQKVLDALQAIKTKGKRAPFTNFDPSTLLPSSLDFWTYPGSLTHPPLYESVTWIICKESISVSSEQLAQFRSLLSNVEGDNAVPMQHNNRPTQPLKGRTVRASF

Compound | Ki [nM]
NS(=O)(=O)c1ccc(N/C(S)=N/C(C(=O)O)c2ccccc2)cc1 (centres undefined) | 40
NS(=O)(=O)c1ccc(NC(=S)N2CCC[C@H]2C(=O)NCC(=O)NCC(=O)O)cc1 | 20
CC(C)CC(/N=C(\S)Nc1ccc(S(N)(=O)=O)cc1)C(=O)O (centres undefined) | 21
CC(/N=C(/S)Nc1ccc(S(N)(=O)=O)cc1)C(=O)O (centres undefined) | 54

Next, values leading:

Ki [nM] | Compound
125 | NS(=O)(=O)c1ccc(N/C(S)=N\CCc2ccccc2)cc1
35 | NS(=O)(=O)c1ccc(N/C(S)=N/C(Cc2ccc(O)c(O)c2)C(=O)O)cc1 (centres undefined)
26 | NS(=O)(=O)c1ccc(N/C(S)=N/C(Cc2ccc(O)cc2)C(=O)O)cc1 (centres undefined)
30 | NS(=O)(=O)c1ccc(N/C(S)=N/C(Cc2ccccc2)C(=O)O)cc1 (centres undefined)

Test system: Oryctolagus cuniculus
Assay: Tested in vivo for lowering IOP (Intraocular Pressure)in Normotensive Rabbits at pH 7.0 after treatment with 50 uL, activity at 60 minutes
Type: functional
Settings: not given

Compound | Delta IOP [mmHg]
CC(C)CC(/N=C(\S)Nc1ccc(S(N)(=O)=O)cc1)C(=O)O (centres undefined) | 6.3

Species: Oryctolagus cuniculus
Assay: not given
Settings: not given
Remark: another data set of the same source

Compound | Delta IOP [mmHg]
NS(=O)(=O)c1ccc(N/C(S)=N/C(Cc2ccccc2)C(=O)O)cc1 (centres undefined) | 4.1
CC(/N=C(/S)Nc1ccc(S(N)(=O)=O)cc1)C(=O)O (centres undefined) | 5

Test system: not listed separately
Assay: physchem
Settings: buffer, pH 7.4
Remark: another data set of the same source
Description: as §1

Compound | solubility [mM]
NS(=O)(=O)c1ccc(N/C(S)=N/C(C(=O)O)c2ccccc2)cc1 (centres undefined) | 54 (≈ 19.7 mg/mL)
